In US11795162B2, “Modulators of the estrogen-related receptor” (Saint Louis University, priority 2017, dated 2023):

How the values were obtained:
ERRγ = biological target: T1, ERRγ (Homo sapiens, UniProt P62508); experiment: Full-length ERRγ luciferase reporter assay (ERRE reporter, HEK293 cells); format: cell-based; conditions: HEK293 cells transfected with ERRE reporter and pcDNA3.1 ERRγ, 24 hours treatment
T1 construct: Data for selected compounds in the full-length; expressed in transfected cells; host or cells: HEK293
T1 sequence (P62508 1-458): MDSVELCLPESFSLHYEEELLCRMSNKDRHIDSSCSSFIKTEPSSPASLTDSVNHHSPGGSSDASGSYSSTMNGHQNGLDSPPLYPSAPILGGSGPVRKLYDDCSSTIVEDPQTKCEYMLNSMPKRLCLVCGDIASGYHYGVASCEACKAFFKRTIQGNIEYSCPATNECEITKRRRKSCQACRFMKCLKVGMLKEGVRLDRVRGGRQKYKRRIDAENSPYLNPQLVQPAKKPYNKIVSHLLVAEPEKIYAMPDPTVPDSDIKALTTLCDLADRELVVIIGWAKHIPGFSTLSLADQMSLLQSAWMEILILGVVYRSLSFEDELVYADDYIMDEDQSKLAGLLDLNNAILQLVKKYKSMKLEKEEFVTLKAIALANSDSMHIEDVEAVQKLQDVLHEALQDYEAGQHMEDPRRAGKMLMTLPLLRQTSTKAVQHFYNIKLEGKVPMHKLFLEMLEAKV
Description: Luciferase Assay. HEK293 cells were maintained in Dulbecco's modified Eagles medium (DMEM) supplemented with 10% fetal bovine serum at 37° C. under 5% CO2. […] Cells were transfected with ERRE reporter construct and pcDNA3.1 ERRγ. 24 hour post-transfection, the cells were treated with vehicle or compound for 24 hours.

ERR gamma protein = biological target: T2, ERR gamma protein (Homo sapiens, UniProt P62508); experiment: Protein thermal shift assay; format: binding; conditions: compound at 20 μM; ERR gamma protein 0.1 mg/mL, SYPRO-Orange; read-out: T.S. (thermal shift) range
T2 sequence (P62508 1-458): T1 sequence (P62508 1-458)
Description: Six replicate reactions were set up and run in Applied Biosystems Quantstudio 7 Real-Time PCR system. Data were collected at a ramp rate of 0.05° C./s from 24° C. through 95° C. and analyzed using Protein Thermal Shift Software 1.3.

| EC50 (ERRγ) [nM] | ΔTm at 20 µM (ERR gamma protein) [°C] | Compound |
| --- | --- | --- |
| 734 | 2 to 4 | O=C(Nc1ccc2ccccc2c1)c1cc(-c2ccc(O)cc2)[nH]n1 [Compound 122] |
| 563 | 2 to 4 | O=C(Nc1cccc(B(O)O)c1)c1ccc(-c2cccc(F)c2)s1 [Compound 50] |
| > 25000 | 2 to 4 | O=C(Nc1ccc(Cl)cc1)c1cc(-c2cccc(O)c2)[nH]n1 [Compound 125] |
| 3400 | – | O=C(Nc1cccc(F)c1)c1ccc(-c2ccc(O)cc2)o1 [Compound 157] |
| 3500 | – | O=C(NC1CCC(O)CC1)c1ccc(-c2ccccc2)o1 (centres unmarked) [Compound 135] |
| 1010 | – | O=C(Nc1cccc(O)c1)c1ccc(-c2ccsc2)s1 [Compound 74] |
| 89 | – | O=C(Nc1cccc(F)c1)c1ccc(-c2ccc(B(O)O)cc2)s1 [Compound 8, (4-(5-((3-fluorophenyl)carbamoyl)thiophen-2-yl)phenyl)boronic acid] |
| – | 2 to 4 | O=C(Nc1ccc(O)cc1)c1cc(-c2ccc(O)cc2)[nH]n1 [Compound 131] |
| – | 0 to 2 | CC(C)Cc1ccc(-c2ccc(C(=O)Nc3cccnc3)s2)cc1 [Compound 77] |
| – | 0 to 2 | CC(C)Cc1ccc(-c2ccc(C(=O)Nc3ccc(Cl)cc3)s2)cc1 [Compound 76] |
| – | 2 to 4 | O=C(Nc1ccncc1)c1ccc(-c2ccc3ccccc3c2)s1 [Compound 120] |
| – | 2 to 4 | O=C(Nc1ccc(O)cc1)c1ncc(-c2ccsc2)s1 [Compound 146] |
| – | 0 to 2 | O=C(O)c1ccc(-c2ccc(C(=O)Nc3ccc(F)cc3)s2)cc1 [Compound 48] |
| – | 0 to 2 | Nc1ccc(-c2ccc(C(=O)NCc3cccc(F)c3)o2)cc1 [Compound 36] |
| – | 2 to 4 | O=C(Nc1cccnc1)c1ccc(-c2ccc3ccccc3c2)s1 [Compound 106] |
| – | 0 to 2 | Cc1ccccc1NC(=O)c1ccc(-c2cccc(O)c2)s1 [Compound 149] |
| – | 2 to 4 | O=C(Nc1ccc2ccccc2c1)c1cc(-c2cccc(O)c2)[nH]n1 [Compound 123] |

| EC50 (ERRγ) [nM] | ΔTm at 20 µM (ERR gamma protein) [°C] | Compound |
| --- | --- | --- |
| – | 0 to 2 | N#Cc1cccc(-c2ccc(C(=O)Nc3cccnc3)s2)c1 [Compound 97] |
| – | 0 to 2 | CC(C)c1ccc(-c2ccc(C(=O)Nc3cccnc3)s2)cc1 [Compound 138] |
| 2680 | 2 to 4 | O=C(Nc1ccc(O)cc1)c1ccc(-c2ccc(C(F)(F)F)cc2)s1 [Compound 114] |
| – | 0 to 2 | CC(C)c1cccc(NC(=O)c2ccc(-c3cccc(O)c3)s2)c1 [Compound 151] |
| – | 0 to 2 | COc1cc(NC(=O)c2ccc(-c3ccc(Cl)cc3)s2)cc(OC)c1 [Compound 75] |
| – | 0 to 2 | N#Cc1cccc(-c2ccc(C(=O)Nc3ccc(Cl)cc3)s2)c1 [Compound 96] |
| – | > 4 | Nc1cccc(NC(=O)c2ccc(-c3ccc(Cl)cc3)s2)c1 [Compound 132] |
| – | 2 to 4 | O=C(NC1CCCCC1)c1ccc(-c2ccc(O)cc2)s1 [Compound 49] |
| – | 0 to 2 | CC(C)c1cccc(-c2ccc(C(=O)Nc3ccc(Cl)cc3)s2)c1 [Compound 117] |
| – | 0 to 2 | O=C(Nc1cccc(C(F)(F)F)c1)c1ccc(-c2ccncc2)s1 [Compound 70] |
| – | 2 to 4 | O=C(Nc1ccc2ncsc2c1)c1ccc(-c2ccc(O)cc2)o1 [Compound 41] |
| – | 0 to 2 | O=C(Nc1ccc2ccccc2c1)c1ccc(-c2ccc(O)cc2)s1 [Compound 31] |
| – | 2 to 4 | N#Cc1cccc(-c2ccc(C(=O)Nc3ccc(O)cc3)s2)c1 [Compound 98] |
| – | 0 to 2 | Cc1ccc(NC(=O)c2cc(-c3cccc(O)c3)[nH]n2)cc1 [Compound 126] |
| – | 0 to 2 | Nc1cccc(-c2ccc(C(=O)NCc3ccccc3)s2)c1 [Compound 142] |
| – | 0 to 2 | CC(C)Oc1ccc(-c2ccc(C(=O)Nc3ccncc3)s2)cc1 [Compound 116] |
| – | 0 to 2 | O=C(Nc1ccc(O)cc1)c1ccc(-c2ccc3ccccc3c2)s1 [Compound 121] |
